The record followed here is PubChem BioAssay (NCI).

Among the test systems are M14 melanoma; MCF7 breast; TK-10 renal; HT29 colon; UACC-257 melanoma; MDA-MB-435; NCI-H522 lung; OVCAR-8 ovarian; NCI/ADR-RES ovarian; HS 578T breast; KM20L2 colon; M19-MEL melanoma; HOP-18 NSCLC.
Test in all cases: inhibition of tumour cell growth, NCI panel, 48 h

Structures are written as SMILES.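 Cells were grown in 96-well plates and exposed to each compound for 48 hours at five concentrations; endpoints were interpolated linearly between bracketing concentrations, or set to the highest concentration if not reached. TGI: concentration producing complete growth inhibition.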 Where a SMILES comes first, the peptide text is derived from it. The star is where a group is joined. Cbz = O=C(OCc1ccccc1)*

Turning to `CCOC(=O)CCC(NC(=O)C(Cc1ccccc1)NC(=O)OCc1ccccc1)C(=O)OCC` (stereo not drawn) (Cbz-Phe-Glu(OEt)-OEt; configuration not given here), the TGI in the assay on M14 melanoma came to 29.3 µM; with MCF7 breast, 39.6 µM; in the assay on TK-10 renal, 34.6 µM; in the assay with HT29 colon, 42.1 µM; in the assay with UACC-257 melanoma, 30.5 µM; in the assay with MDA-MB-435, 35.5 µM. Moreover, the TGI in the assay on NCI-H522 lung stood at 29.6 µM; in the assay with OVCAR-8 ovarian it was 36.2 µM; in the assay with NCI/ADR-RES ovarian, 42 µM; in the assay with HS 578T breast, 35 µM.

On to `CC(=O)O[C@]12CCCCCC1C1(O)C(O)CCCCC12` (some centres not stated), for which the TGI in the assay with M14 melanoma, in the assay on TK-10 renal, in the assay on HT29 colon, in the assay with UACC-257 melanoma, in the assay with KM20L2 colon and in the assay on M19-MEL melanoma was greater than 100 µM in each case. The TGI with NCI-H522 lung and with OVCAR-8 ovarian was greater than 100 µM throughout.

`CC1CC(Nc2ccc(Br)cc2)N(C(=O)c2ccc(Br)cc2)O1` (configuration not stated): the TGI in the assay with M14 melanoma, in the assay with MCF7 breast, with TK-10 renal, with HT29 colon, in the assay with UACC-257 melanoma and in the assay with MDA-MB-435 was greater than 10 µM in each case. Also, the TGI in the assay with NCI-H522 lung, in the assay on OVCAR-8 ovarian, with NCI/ADR-RES ovarian and with HS 578T breast was greater than 10 µM throughout.

Turning to `C1COCCSC2=C(SCCO1)SC(=C1SC3=C(SCCOCCOCCS3)S1)S2`, the TGI in the assay with M14 melanoma, in the assay with TK-10 renal, in the assay on HT29 colon, in the assay on UACC-257 melanoma, with KM20L2 colon and in the assay with NCI-H522 lung was greater than 100 µM each time. The TGI in the assay on OVCAR-8 ovarian and in the assay on HOP-18 NSCLC was greater than 100 µM each time.

For `O=C1/C(=C\c2cccc(Oc3ccccc3)c2)S(=O)(=O)C(c2ccccc2)N1c1cccc(Cl)c1` (configuration not stated), the TGI in the assay on M14 melanoma, with MCF7 breast, with TK-10 renal, in the assay on HT29 colon, in the assay with UACC-257 melanoma and with MDA-MB-435 was greater than 100 µM each time. Also, the TGI in the assay with NCI-H522 lung is greater than 100 µM; with OVCAR-8 ovarian it was 69.4 µM; with NCI/ADR-RES ovarian it was greater than 100 µM; with HS 578T breast, greater than 100 µM.

On to `Cc1ccc2c(c1)CC1(Cc3cccc(C)c3C1=O)C2=O` (configuration not stated), for which the TGI was greater than 100 µM in the assay with M14 melanoma; greater than 10 µM in the assay on MCF7 breast; greater than 100 µM in the assay with TK-10 renal; greater than 100 µM in the assay with HT29 colon; greater than 100 µM with UACC-257 melanoma; greater than 10 µM in the assay on MDA-MB-435. In addition, the TGI in the assay with NCI-H522 lung, in the assay on OVCAR-8 ovarian, in the assay with NCI/ADR-RES ovarian and with HS 578T breast was greater than 100 µM in each case.

On to `c1ccc2c3[nH]c(c2c1)=Nc1ccc(cc1)-c1nc2ccc(cc2o1)N=c1[nH]c(c2ccccc12)=Nc1ccc2nc(oc2c1)-c1ccc(cc1)N=3`, for which the TGI with M14 melanoma, with MCF7 breast, with TK-10 renal, with HT29 colon, in the assay on UACC-257 melanoma and with MDA-MB-435 was greater than 100 µM each time. In addition, the TGI with NCI-H522 lung, with OVCAR-8 ovarian, with NCI/ADR-RES ovarian and in the assay with HS 578T breast was greater than 100 µM throughout.

In the case of `CC(=O)O[C@@]12CO[C@@H]1CC(O)[C@@]1(C)C(=O)[C@H](O)C3=C(C)C(O)C[C@@](O)(C(OC(=O)c4ccccc4)C12)C3(C)C` (some centres not stated), the TGI in the assay with M14 melanoma was greater than 48.5 µM; in the assay on MCF7 breast it was greater than 100 µM; in the assay on TK-10 renal it was greater than 100 µM; with HT29 colon it was 23.8 µM; in the assay with UACC-257 melanoma, greater than 26.8 µM; with KM20L2 colon, 3.31 µM. The TGI in the assay with M19-MEL melanoma was greater than 100 µM; in the assay with MDA-MB-435, 0.413 µM; with OVCAR-8 ovarian, greater than 74.9 µM; with NCI/ADR-RES ovarian, greater than 100 µM; with HS 578T breast, 1.18 µM.

For `O=c1[nH]c2nc3ccccc3c(=O)n2/c1=C/c1cccs1`, the TGI with M14 melanoma, in the assay with MCF7 breast, with TK-10 renal, with HT29 colon, in the assay with UACC-257 melanoma and in the assay with MDA-MB-435 was greater than 100 µM in each case. Moreover, the TGI in the assay with NCI-H522 lung, in the assay with OVCAR-8 ovarian, in the assay on NCI/ADR-RES ovarian and in the assay with HS 578T breast was greater than 100 µM in each case.

Take `Cc1ccnc2c1C(=O)C1=C(OC(C)(C)CC1O)C2=O` (configuration not stated): the TGI with M14 melanoma is 9.97 µM; with MCF7 breast, 7.94 µM; with TK-10 renal, 24.4 µM; in the assay on HT29 colon it was 10.8 µM; with UACC-257 melanoma, 3.47 µM; with MDA-MB-435 it was 2.73 µM. In addition, the TGI with NCI-H522 lung was 11.1 µM; in the assay on OVCAR-8 ovarian, 11.8 µM; with NCI/ADR-RES ovarian it was 8.93 µM; in the assay on HS 578T breast, 15.2 µM.

Regarding `CC(=O)SC(C[N+](=O)[O-])c1ccc2c(c1)OCO2` (configuration not stated), the TGI with M14 melanoma came out at 15.6 µM; with MCF7 breast, 6.93 µM; with TK-10 renal, 28.2 µM; in the assay with HT29 colon, 5.56 µM; in the assay on UACC-257 melanoma, 22.3 µM; in the assay with MDA-MB-435, 17.6 µM. Besides, the TGI came out at 10.4 µM with NCI-H522 lung, 28.1 µM in the assay on OVCAR-8 ovarian, 35.5 µM in the assay with NCI/ADR-RES ovarian and 45.3 µM in the assay with HS 578T breast.

Take `Cc1[nH]n(-c2nc(O)c(-c3ccccc3)c(=O)[nH]2)c(=O)c1CCO`: the TGI in the assay on M14 melanoma, in the assay with MCF7 breast, in the assay with TK-10 renal, with HT29 colon, in the assay on UACC-257 melanoma and with MDA-MB-435 was greater than 100 µM in each case. Moreover, the TGI in the assay on NCI-H522 lung, in the assay on OVCAR-8 ovarian, with NCI/ADR-RES ovarian and in the assay with HS 578T breast was greater than 100 µM in each case.

Take `Cn1nnnc1SC(F)(F)c1nc2ccccc2o1`: the TGI with M14 melanoma, in the assay with MCF7 breast, in the assay with TK-10 renal, in the assay on HT29 colon, in the assay on UACC-257 melanoma and in the assay with MDA-MB-435 was greater than 100 µM throughout. Moreover, the TGI with NCI-H522 lung, with OVCAR-8 ovarian, with NCI/ADR-RES ovarian and in the assay on HS 578T breast was greater than 100 µM in each case.
